Data on 24 compounds can be found in ChEMBL document CHEMBL1909046, “DrugMatrix in vitro pharmacology data”.

The structures appear in SMILES notation.

The target of data set [1] is Beta-1 adrenergic receptor (Homo sapiens, UniProt P08588). The experiment in a line: DRUGMATRIX: Adrenergic beta1 radioligand binding (ligand: [125I] Cyanopindolol). It is filed as cell membranes, CHO-K1, Membrane. The note with it: Not Active = under 50% inhibition at 10 µM.
A short description of data set [2]: DRUGMATRIX: Tumor Necrosis Factor (TNF), Non-Selective radioligand binding (ligand: [125I] TNF-alpha). Format: cell membranes, Membrane. The note with it: u-937; Not Active = under 50% inhibition at 10 µM.
In a further data set the target is T1, D(4) dopamine receptor (Homo sapiens, UniProt P21917).
T1 sequence (P21917 whole entry): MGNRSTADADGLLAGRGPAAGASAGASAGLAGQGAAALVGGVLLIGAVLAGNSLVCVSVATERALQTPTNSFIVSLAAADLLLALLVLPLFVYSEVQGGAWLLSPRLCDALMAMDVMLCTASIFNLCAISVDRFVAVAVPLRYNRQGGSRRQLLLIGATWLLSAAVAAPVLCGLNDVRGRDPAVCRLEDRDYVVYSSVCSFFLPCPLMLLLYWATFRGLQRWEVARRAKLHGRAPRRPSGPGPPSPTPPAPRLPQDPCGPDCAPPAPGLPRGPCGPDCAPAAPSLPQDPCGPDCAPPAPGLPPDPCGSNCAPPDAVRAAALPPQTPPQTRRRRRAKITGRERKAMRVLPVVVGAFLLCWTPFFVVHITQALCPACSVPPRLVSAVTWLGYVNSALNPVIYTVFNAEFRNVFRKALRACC
The experiment in a line: DRUGMATRIX: Dopamine D4.2 radioligand binding (ligand: [3H] Spiperone). Format: cell membranes, CHO-K1, Membrane. The note with it: cho-k1; Not Active = under 50% inhibition at 10 µM.

The target of data set [3] is Tyrosine-protein kinase Fyn (Homo sapiens, UniProt P06241). Description: biochemical. Format: cell-based, Insect cells.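 Note: enzymatic inhibition of Fyn kinase activity measured with Poly(Glu:Tyr) as the phosphorylation substrate; in other assays of this panel Not Active means under 50% inhibition at 10 µM.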
Chain of Tyrosine-protein kinase Fyn (P06241 whole entry): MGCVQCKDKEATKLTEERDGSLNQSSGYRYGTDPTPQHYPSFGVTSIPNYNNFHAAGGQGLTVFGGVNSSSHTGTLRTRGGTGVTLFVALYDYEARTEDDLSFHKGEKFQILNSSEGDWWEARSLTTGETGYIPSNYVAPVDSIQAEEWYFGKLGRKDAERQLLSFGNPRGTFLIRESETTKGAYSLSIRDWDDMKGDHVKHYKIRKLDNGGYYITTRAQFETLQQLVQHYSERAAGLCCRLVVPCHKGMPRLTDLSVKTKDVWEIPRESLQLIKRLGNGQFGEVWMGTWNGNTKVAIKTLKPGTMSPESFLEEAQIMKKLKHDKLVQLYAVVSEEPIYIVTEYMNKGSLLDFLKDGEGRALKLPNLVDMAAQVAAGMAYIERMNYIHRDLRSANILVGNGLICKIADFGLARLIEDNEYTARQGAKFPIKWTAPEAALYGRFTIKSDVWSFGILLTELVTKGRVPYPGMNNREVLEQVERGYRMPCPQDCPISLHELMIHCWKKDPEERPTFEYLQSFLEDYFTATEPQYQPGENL
For a further data set, the target named is Cytochrome P450 2D6 (Homo sapiens, UniProt P10635). The note with it: bti-tn-5b1-4. Note: in other assays of this panel Not Active means under 50% inhibition at 10 µM.
Chain of Cytochrome P450 2D6 (P10635 whole entry): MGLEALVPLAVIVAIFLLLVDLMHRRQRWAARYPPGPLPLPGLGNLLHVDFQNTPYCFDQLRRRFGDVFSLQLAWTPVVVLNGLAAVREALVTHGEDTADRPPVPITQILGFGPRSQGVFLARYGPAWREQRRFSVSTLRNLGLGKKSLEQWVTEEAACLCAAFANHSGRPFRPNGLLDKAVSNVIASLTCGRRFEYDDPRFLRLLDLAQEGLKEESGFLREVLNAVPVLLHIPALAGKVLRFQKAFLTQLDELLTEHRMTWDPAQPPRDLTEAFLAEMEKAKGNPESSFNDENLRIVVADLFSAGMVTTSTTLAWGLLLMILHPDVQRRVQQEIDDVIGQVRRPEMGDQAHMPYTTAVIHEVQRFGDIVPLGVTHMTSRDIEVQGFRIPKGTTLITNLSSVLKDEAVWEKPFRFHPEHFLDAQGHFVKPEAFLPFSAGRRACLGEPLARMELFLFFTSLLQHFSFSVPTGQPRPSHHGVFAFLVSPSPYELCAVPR

Chain of Beta-1 adrenergic receptor (P08588 whole entry): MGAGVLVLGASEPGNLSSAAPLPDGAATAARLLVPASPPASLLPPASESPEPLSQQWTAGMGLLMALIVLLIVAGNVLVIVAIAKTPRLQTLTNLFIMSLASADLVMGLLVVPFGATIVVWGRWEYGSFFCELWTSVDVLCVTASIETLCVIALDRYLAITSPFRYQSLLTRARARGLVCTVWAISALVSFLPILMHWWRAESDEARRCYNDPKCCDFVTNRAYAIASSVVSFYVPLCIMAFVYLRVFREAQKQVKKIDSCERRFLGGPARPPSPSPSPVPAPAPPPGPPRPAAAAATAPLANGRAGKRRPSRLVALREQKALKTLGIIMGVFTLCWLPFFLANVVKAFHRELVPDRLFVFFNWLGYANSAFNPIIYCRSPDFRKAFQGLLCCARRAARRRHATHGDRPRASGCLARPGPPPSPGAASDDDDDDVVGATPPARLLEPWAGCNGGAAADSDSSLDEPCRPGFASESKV

Turning to `O=P1(N(CCCl)CCCl)NCCCO1` (centres undefined) [CYCLOPHOSPHAMIDE ANHYDROUS], the IC50 entry (in data set [1] (cho-k1); in data set [2]; on D(4) dopamine receptor; in data set [3] (insect cells); against Cytochrome P450 2D6) was “Not Active” each time. For the same compound, the Ki result (in data set [2]; on Cytochrome P450 2D6) was “Not Active” throughout.

For the compound `CC(=O)O[C@]1(C(C)=O)CC[C@H]2[C@@H]3C=C(Cl)C4=CC(=O)[C@@H]5C[C@@H]5[C@]4(C)[C@H]3CC[C@@]21C` [CYPROTERONE ACETATE], the IC50 entry (in data set [1] (cho-k1); in data set [2]; on D(4) dopamine receptor; in data set [3] (insect cells); against Cytochrome P450 2D6) was “Not Active” each time. The Ki entry (in data set [2]; on Cytochrome P450 2D6) was “Not Active” throughout.

Consider `Nc1nc(N)nc(NC2CC2)n1` [CYROMAZINE], for which the IC50 result (in data set [1] (cho-k1); in data set [2]; at D(4) dopamine receptor; in data set [3] (insect cells); at Cytochrome P450 2D6) was “Not Active” in each case. The Ki entry (in data set [2]; on Cytochrome P450 2D6) was “Not Active” throughout.

`CCN[C@@H](C)Cc1cccc(C(F)(F)F)c1` [DEXFENFLURAMINE]: the IC50 entry (in data set [1] (cho-k1); in data set [2]; at D(4) dopamine receptor; in data set [3] (insect cells); at Cytochrome P450 2D6) was “Not Active” each time. In addition, the Ki entry (in data set [2]; on Cytochrome P450 2D6) was “Not Active” throughout.

As for `C[C@H](C(=O)O)c1cccc(C(=O)c2ccccc2)c1` [DEXKETOPROFEN], the IC50 result (in data set [1] (cho-k1); in data set [2]; at D(4) dopamine receptor; in data set [3] (insect cells); against Cytochrome P450 2D6) was “Not Active” in each case. Further, the Ki entry (in data set [2]; on Cytochrome P450 2D6) was “Not Active” each time.

In the case of `CN1C[C@H](C(=O)N[C@]2(C)O[C@@]3(O)[C@@H]4CCCN4C(=O)[C@H](Cc4ccccc4)N3C2=O)C[C@@H]2c3cccc4[nH]cc(c34)C[C@H]21` [DIHYDROERGOTAMINE], the IC50 result (in data set [1] (cho-k1); in data set [2]; on D(4) dopamine receptor; in data set [3] (insect cells); against Cytochrome P450 2D6) was “Not Active” each time. Further, the Ki result (in data set [2]; on Cytochrome P450 2D6) was “Not Active” in each case.

For the compound `Cc1c(N(C)CS(=O)(=O)[O-])c(=O)n(-c2ccccc2)n1C.[Na+]` [DIPYRONE SODIUM], the IC50 entry (in data set [1] (cho-k1); in data set [2]; at D(4) dopamine receptor; in data set [3] (insect cells); against Cytochrome P450 2D6) was “Not Active” throughout. For the same compound, the Ki entry (in data set [2]; on Cytochrome P450 2D6) was “Not Active” throughout.

As to `CC(CCc1ccc(O)cc1)NCCc1ccc(O)c(O)c1` (centres undefined) [DOBUTAMINE], the IC50 – broadly, the concentration at which inhibition is half-maximal – in data set [1] (read-out: IC50) is 1940 nM; in data set [2] it was “Not Active”; at D(4) dopamine receptor, “Not Active”; in data set [3] (read-out: IC50), 3980 nM; against Cytochrome P450 2D6 it was “Not Active”. For the same compound, the Ki (in general, the equilibrium dissociation constant of an inhibitor or competing ligand from its target) was 1120 nM in data set [1] (read-out: Ki), “Not Active” in data set [2] and “Not Active” at Cytochrome P450 2D6.

In the case of `CCn1cc(C(=O)O)c(=O)c2cc(F)c(N3CCNCC3)nc21` [ENOXACIN], the IC50 result (in data set [1] (cho-k1); in data set [2]; on D(4) dopamine receptor; in data set [3] (insect cells); against Cytochrome P450 2D6) was “Not Active” throughout. Also, the Ki entry (in data set [2]; at Cytochrome P450 2D6) was “Not Active” each time.

`CCC(=O)O[C@H]1[C@H](O[C@@H]2[C@@H](C)[C@H](O[C@H]3C[C@@](C)(OC)[C@@H](O)[C@H](C)O3)[C@@H](C)C(=O)O[C@H](CC)[C@@](C)(O)[C@H](O)[C@@H](C)C(=O)[C@H](C)C[C@@]2(C)O)O[C@H](C)C[C@@H]1N(C)C` [ERYTHROMYCIN PROPIONATE]: the IC50 result (in data set [1] (cho-k1); in data set [2]; on D(4) dopamine receptor; in data set [3] (insect cells); at Cytochrome P450 2D6) was “Not Active” throughout. The Ki entry (in data set [2]; at Cytochrome P450 2D6) was “Not Active” in each case.

Regarding `C=C(CC)C(=O)c1ccc(OCC(=O)O)c(Cl)c1Cl` [ETHACRYNIC ACID], the IC50 result (in data set [1] (cho-k1); in data set [2]; on D(4) dopamine receptor; in data set [3] (insect cells); on Cytochrome P450 2D6) was “Not Active” each time. Moreover, the Ki result (in data set [2]; at Cytochrome P450 2D6) was “Not Active” each time.

`CC(C(=O)O)c1ccc(-c2ccccc2)c(F)c1` (centres undefined) [FLURBIPROFEN]: the IC50 result (in data set [1] (cho-k1); in data set [2]; on D(4) dopamine receptor; in data set [3] (insect cells); against Cytochrome P450 2D6) was “Not Active” each time. Besides, the inhibition constant Ki entry (in data set [2]; on Cytochrome P450 2D6) was “Not Active” in each case.

In the case of `NC[C@@H]1O[C@H](O[C@H]2[C@@H](O)[C@H](O[C@@H]3[C@@H](O)[C@H](N)C[C@H](N)[C@H]3O[C@H]3O[C@H](CN)[C@@H](O)[C@H](O)[C@H]3N)O[C@@H]2CO)[C@H](N)[C@@H](O)[C@@H]1O` [FRAMYCETIN], the IC50 result (in data set [1] (cho-k1); in data set [2]; at D(4) dopamine receptor; in data set [3] (insect cells); on Cytochrome P450 2D6) was “Not Active” in each case. Further, the Ki entry (in data set [2]; on Cytochrome P450 2D6) was “Not Active” in each case.

Consider `Cc1c(F)c(N2CCNC(C)C2)cc2c1c(=O)c(C(=O)O)cn2C1CC1` (centres undefined) [GREPAFLOXACIN], for which the IC50 result (in data set [1] (cho-k1); in data set [2]; on D(4) dopamine receptor; in data set [3] (insect cells); on Cytochrome P450 2D6) was “Not Active” in each case. Besides, the Ki result (in data set [2]; at Cytochrome P450 2D6) was “Not Active” throughout.

In the case of `CC[C@H](C)C(=O)O[C@H]1C[C@@H](C)C=C2C=C[C@H](C)[C@H](CC[C@@H]3C[C@@H](O)CC(=O)O3)[C@H]21` [LOVASTATIN], the IC50 result (in data set [1] (cho-k1); in data set [2]; at D(4) dopamine receptor; in data set [3] (insect cells); on Cytochrome P450 2D6) was “Not Active” in each case. In addition, the Ki result (in data set [2]; on Cytochrome P450 2D6) was “Not Active” throughout.

For the compound `CC(C(=O)O)c1ccc(CC2CCCC2=O)cc1` (centres undefined) [LOXOPROFEN], the IC50 entry (in data set [1] (cho-k1); in data set [2]; on D(4) dopamine receptor; in data set [3] (insect cells); on Cytochrome P450 2D6) was “Not Active” throughout. Further, the Ki result (in data set [2]; on Cytochrome P450 2D6) was “Not Active” each time.

Turning to `Cc1cccc(Nc2ccccc2C(=O)O)c1C` [MEFENAMIC ACID], the IC50 result (in data set [1] (cho-k1); in data set [2]; on D(4) dopamine receptor; in data set [3] (insect cells); at Cytochrome P450 2D6) was “Not Active” in each case. Further, the Ki entry (in data set [2]; at Cytochrome P450 2D6) was “Not Active” each time.

Turning to `COc1ccccc1OCC(O)COC(N)=O` (centres undefined) [METHOCARBAMOL], the IC50 result (in data set [1] (cho-k1); in data set [2]; at D(4) dopamine receptor; in data set [3] (insect cells); against Cytochrome P450 2D6) was “Not Active” throughout. For the same compound, the Ki entry (in data set [2]; at Cytochrome P450 2D6) was “Not Active” throughout.

As for `COC(=O)c1ccccc1O` [METHYL SALICYLATE], the IC50 entry (in data set [1] (cho-k1); in data set [2]; at D(4) dopamine receptor; in data set [3] (insect cells); against Cytochrome P450 2D6) was “Not Active” throughout. Further, the Ki entry (in data set [2]; at Cytochrome P450 2D6) was “Not Active” each time.

Consider `COc1ccc2cc(CCC(C)=O)ccc2c1` [NABUMETONE], for which the IC50 result (in data set [1] (cho-k1); in data set [2]; at D(4) dopamine receptor; in data set [3] (insect cells); at Cytochrome P450 2D6) was “Not Active” each time. In addition, the Ki result (in data set [2]; at Cytochrome P450 2D6) was “Not Active” each time.

As for `O=C(O)c1cccnc1` [NIACIN], the IC50 entry (in data set [1] (cho-k1); in data set [2]; on D(4) dopamine receptor; in data set [3] (insect cells); against Cytochrome P450 2D6) was “Not Active” each time. For the same compound, the Ki entry (in data set [2]; at Cytochrome P450 2D6) was “Not Active” throughout.

Take `C[C@]12C/C(=C/O)C(=O)C[C@@H]1CC[C@@H]1[C@@H]2CC[C@@]2(C)[C@H]1CC[C@]2(C)O` [OXYMETHOLONE]: the IC50 entry (in data set [1] (cho-k1); in data set [2]; on D(4) dopamine receptor; in data set [3] (insect cells); against Cytochrome P450 2D6) was “Not Active” each time. Also, the Ki entry (in data set [2]; at Cytochrome P450 2D6) was “Not Active” each time.

Regarding `CC(C)(CO)C(O)C(=O)NCCCO` (centres undefined) [PANTHENOL], the IC50 result (in data set [1] (cho-k1); in data set [2]; on D(4) dopamine receptor; in data set [3] (insect cells); at Cytochrome P450 2D6) was “Not Active” throughout. Besides, the Ki result (in data set [2]; on Cytochrome P450 2D6) was “Not Active” each time.

With `CCCCC1C(=O)N(c2ccccc2)N(c2ccccc2)C1=O` [PHENYLBUTAZONE], the IC50 entry (in data set [1] (cho-k1); in data set [2]; at D(4) dopamine receptor; in data set [3] (insect cells); against Cytochrome P450 2D6) was “Not Active” in each case. Also, the Ki entry (in data set [2]; on Cytochrome P450 2D6) was “Not Active” each time.
